What was measured:
[1] = tested on: Respiratory syncytial virus recombinant with luciferase (RSV-Luc5); assay: NHBE RSV-Luc5 384-well assay (EC50 RSVFLUC NHBE-384 v2), Example W; assay type: cell-based; conditions: human respiratory syncytial virus, 72 h, read-out: EC50 RSV FLUC NHBE 384 V2 (per Ex. W)
Description: Example W: NHBE RSV-Luc5 384-Well Assay (EC50 RSVFLUC NHBE-384 v2)
Normal Human Bronchial Epithelial (NHBE) cells were purchased from Lonza (Walkersville, MD Cat #CC2540) and maintained in BEGM Bronchial Epithelial Cell Growth Medium BulletKit (Lonza CC-3170).
Cells were thawed, expanded, and were used for experiments at passage 2. Respiratory syncytial virus recombinant with luciferase (RSV-Luc5) (≥1×10^7 Infectious Units/mL (IU/mL) determined by TCID50) was purchased from Microbiologics (Saint Cloud, MN). Viral replication was determined in NHBE cells in the following manner.
Compounds are prepared in 100% DMSO in 384-well polypropylene plates (Greiner, Monroe, NC, Cat #784201) with 8 compounds per plate in grouped replicates of 4 at 10 serially diluted concentrations (1:3). The serially diluted compounds were transferred to low dead volume Echo plates (Labcyte, Sunnyvale, CA, Cat #LP-0200).
The test compounds were spotted to 384-well assay plates (Greiner, Monroe, NC, Cat #781091) at 200 nL per well using an Echo acoustic dispenser (Labcyte, Sunnyvale, CA). NHBE cells were harvested and suspended in BEGM Bronchial Epithelial Cell Growth Medium BulletKit and seeded to the pre-spotted assay plates at 5,000 cells per well in 30 μL. RSV-Luc5 virus was diluted in BEGM Bronchial Epithelial Cell Growth Medium BulletKit at 500,000 Infectious Units (IU) per mL and 10 μL per well was added to the assay plates containing cells and compounds, for an MOI of 1. The assay plates were incubated for 3 days at 37° C. and 5% CO2. At the end of incubation, One-Glo reagent (Promega, Madison, WI, Cat #E6120) was prepared. The assay plates and One-Glo reagent were equilibrated to room temperature for at least 15 minutes. 40 μL per well of One-Glo reagent was added and the plates were incubated at room temperature for 15 minutes before reading the luminescence signal on an EnVision multimode plate reader (Perkin Elmer, Waltham, MA). Remdesivir was used as positive control and DMSO was used as negative control. Values were normalized to the positive and negative controls (as 0% and 100% replication, respectively) and data was fitted using non-linear regression analysis by Gilead's dose response tool. The EC50 value for each compound was defined as the concentration reducing the viral replication by 50%.

[2] = GI S9 stability, human, Example Y; assay type: in vitro ADME; conditions: pooled intestinal S9 fractions; human intestinal S9, 1.0 mg/mL protein, 2 μM compound, pH 7.4; read-out: GIS9 Human T½ (per Ex. Y)
Protocol: Example Y: GI S9 Stability Data
Stock solutions of test compounds in dimethyl sulfoxide (DMSO) having a final concentration of 10 mM were prepared and used in all experiments. Sekisui XenoTech (Kansas City, KS) provided pooled intestinal S9 fractions. All other chemicals were purchased from Sigma-Aldrich (St. Louis, MO) or VWR (West Chester, PA). Internal Standard/Quench (IS/Q) used to stop reactions was 100 nM labetalol in (by volume) methanol (10%) and acetonitrile (90%).
Stability in Intestinal S9 Fractions: Duplicate aliquots of test compound or positive control substrate were added to S9 stock diluted with phosphate buffered saline (137 mM NaCl, 2.7 mM KCl, 10 mM phosphate buffer), pH 7.4, to obtain a protein concentration of 1.0 mg/mL. The metabolic reactions were initiated by the addition of the substrates to the S9 reaction mixture to a final concentration of 2 μM. At 0, 10, 20, 30, 60 and 120 min, 25 μL aliquots of the reaction mixture were transferred to plates containing 225 μl of IS/Q solution. After quenching, the plates were centrifuged at 3000×g for 30 minutes. 150 μL aliquots of each supernatant were dried down then reconstituted with 300 μL water. Aliquots (10 μL) of the prepared samples were analyzed on a Thermo Q-Exactive mass spectrometer as described below.
Liquid Chromatography—Mass Spectrometry: Quantification of test compounds and control substrate was performed by analyte/internal standard peak area ratio (PAR) values measured on a Thermo Q-Exactive mass spectrometer coupled to a Dionex UltiMate 3000 HPLC with a Leap Technologies HTC PAL autosampler. The column used for analysis was a Waters Acquity BEH C18 (1.7 μm particle size, 2.1×50 mm). Mobile phase A consisted of 0.1% (v/v) formic acid in water. Mobile phase B consisted of 0.1% (v/v) formic acid in acetonitrile. Elution of analytes was achieved by a series of linear gradients varying the proportions of A and B. The mass spectrometer was calibrated on a weekly basis and mass tolerance of 5 ppm was used.
Metabolic stabilities in S9 fractions were determined by measuring the rates of disappearance of test compound and positive control substrate.
Data (% of substrate remaining) were plotted on a semi-log scale and fitted using an exponential decline model:
Ct=C0×e^−ln2/T1/2×t • Where Ct—% of substrate remaining at time=t; C0—% of substrate remaining at time=0; t—time; T1/2—half-life. • The Half-life (T1/2) is determined by the following equation: […]
Assuming a first-order reaction, the slope (k) is extrapolated from the aforementioned plotted data.

| Compound | EC50 [1] | half-life at 2 μM [2] |
| --- | --- | --- |
| N#C[C@]1(COC(=O)OC2CCCC2)O[C@@H](c2ccc3c(N)ncnn23)[C@H](O)[C@@H]1O [Compound 1, ((2R,3S,4R,5S)-5-(4-aminopyrrolo[2,1-f][1,2,4]triazin-7-yl)-2-cyano-3,4-dihydroxytetrahydrofuran-2-yl)methyl cyclopentyl carbonate] | 12.8 µM | 31 min |
| CC(C)(C)COC(=O)OC[C@@]1(C#N)O[C@@H](c2ccc3c(N)ncnn23)[C@H](O)[C@@H]1O [Compound 2, ((2R,3S,4R,5S)-5-(4-aminopyrrolo[2,1-f][1,2,4]triazin-7-yl)-2-cyano-3,4-dihydroxytetrahydrofuran-2-yl)methyl neopentyl carbonate] | 11.4 µM | 23 min |
| CC[C@H](C)OC(=O)OC[C@@]1(C#N)O[C@@H](c2ccc3c(N)ncnn23)[C@H](O)[C@@H]1O [Compound 4, ((2R,3S,4R,5S)-5-(4-aminopyrrolo[2,1-f][1,2,4]triazin-7-yl)-2-cyano-3,4-dihydroxytetrahydrofuran-2-yl)methyl ((S)-sec-butyl) carbonate] | 9.85 µM | 65 min |
| N#C[C@]1(COC(=O)OCCc2ccccc2)O[C@@H](c2ccc3c(N)ncnn23)[C@H](O)[C@@H]1O [Compound 5, ((2R,3S,4R,5S)-5-(4-aminopyrrolo[2,1-f][1,2,4]triazin-7-yl)-2-cyano-3,4-dihydroxytetrahydrofuran-2-yl)methyl phenethyl carbonate] | 12.5 µM | 44 min |
| COC(=O)OC[C@@]1(C#N)O[C@@H](c2ccc3c(N)ncnn23)[C@H](O)[C@@H]1O [Compound 6, ((2R,3S,4R,5S)-5-(4-aminopyrrolo[2,1-f][1,2,4]triazin-7-yl)-2-cyano-3,4-dihydroxytetrahydrofuran-2-yl)methyl methyl carbonate] | 36.6 µM | 201 min |
| CC(C)CCOC(=O)OC[C@@]1(C#N)O[C@@H](c2ccc3c(N)ncnn23)[C@H](O)[C@@H]1O [Compound 7, ((2R,3S,4R,5S)-5-(4-aminopyrrolo[2,1-f][1,2,4]triazin-7-yl)-2-cyano-3,4-dihydroxytetrahydrofuran-2-yl)methyl isopentyl carbonate] | 13.9 µM | 20 min |
| CC(C)COC(=O)OC[C@@]1(C#N)O[C@@H](c2ccc3c(N)ncnn23)[C@H](O)[C@@H]1O [Compound 8, ((2R,3S,4R,5S)-5-(4-aminopyrrolo[2,1-f][1,2,4]triazin-7-yl)-2-cyano-3,4-dihydroxytetrahydrofuran-2-yl)methyl isobutyl carbonate] | 12.5 µM | 29 min |
| CCCOC(=O)OC[C@@]1(C#N)O[C@@H](c2ccc3c(N)ncnn23)[C@H](O)[C@@H]1O [Compound 9, ((2R,3S,4R,5S)-5-(4-aminopyrrolo[2,1-f][1,2,4]triazin-7-yl)-2-cyano-3,4-dihydroxytetrahydrofuran-2-yl)methyl propyl carbonate] | 15.9 µM | 29 min |
| CC[C@@H](C)OC(=O)OC[C@@]1(C#N)O[C@@H](c2ccc3c(N)ncnn23)[C@H](O)[C@@H]1O [Compound 10, ((2R,3S,4R,5S)-5-(4-aminopyrrolo[2,1-f][1,2,4]triazin-7-yl)-2-cyano-3,4-dihydroxytetrahydrofuran-2-yl)methyl ((R)-sec-butyl) carbonate] | 11.4 µM | 104 min |
| CC(C)OC(=O)OC[C@@]1(C#N)O[C@@H](c2ccc3c(N)ncnn23)[C@H](O)[C@@H]1O [Compound 11, ((2R,3S,4R,5S)-5-(4-aminopyrrolo[2,1-f][1,2,4]triazin-7-yl)-2-cyano-3,4-dihydroxytetrahydrofuran-2-yl)methyl isopropyl carbonate] | 12 µM | 104 min |
| N#C[C@]1(COC(=O)OC2CCOCC2)O[C@@H](c2ccc3c(N)ncnn23)[C@H](O)[C@@H]1O [Compound 12, ((2R,3S,4R,5S)-5-(4-aminopyrrolo[2,1-f][1,2,4]triazin-7-yl)-2-cyano-3,4-dihydroxytetrahydrofuran-2-yl)methyl (tetrahydro-2H-pyran-4-yl) carbonate] | 8.88 µM | 789 min |
| CC(C)(C)OC(=O)OC[C@@]1(C#N)O[C@@H](c2ccc3c(N)ncnn23)[C@H](O)[C@@H]1O [Compound 13, ((2R,3S,4R,5S)-5-(4-aminopyrrolo[2,1-f][1,2,4]triazin-7-yl)-2-cyano-3,4-dihydroxytetrahydrofuran-2-yl)methyl tert-butyl carbonate] | 10.8 µM | 97 min |
| CCC(CC)OC(=O)OC[C@@]1(C#N)O[C@@H](c2ccc3c(N)ncnn23)[C@H](O)[C@@H]1O [Compound 14, ((2R,3S,4R,5S)-5-(4-aminopyrrolo[2,1-f][1,2,4]triazin-7-yl)-2-cyano-3,4-dihydroxytetrahydrofuran-2-yl)methyl pentan-3-yl carbonate] | 14.9 µM | 104 min |
| CC(C)COC(=O)OC[C@@]1(C#N)O[C@@H](c2ccc3c(N)ncnn23)[C@@H]2OC(=O)O[C@@H]21 [Compound 15, ((3aS,4R,6S,6aS)-6-(4-aminopyrrolo[2,1-f][1,2,4]triazin-7-yl)-4-cyano-2-oxotetrahydrofuro[3,4-d][1,3]dioxol-4-yl)methyl isobutyl carbonate] | 11.4 µM | 1 min |
| CC(C)COC(=O)Nc1ncnn2c([C@@H]3O[C@](C#N)(CO)[C@@H](O)[C@H]3O)ccc12 [Compound 16, Isobutyl (7-((2S,3R,4S,5R)-5-cyano-3,4-dihydroxy-5-(hydroxymethyl)tetrahydrofuran-2-yl)pyrrolo[2,1-f][1,2,4]triazin-4-yl)carbamate] | 50 µM | 789 min |
| N#C[C@]1(COC(=O)OC2CCC2)O[C@@H](c2ccc3c(N)ncnn23)[C@H](O)[C@@H]1O [Compound 17, ((2R,3S,4R,5S)-5-(4-aminopyrrolo[2,1-f][1,2,4]triazin-7-yl)-2-cyano-3,4-dihydroxytetrahydrofuran-2-yl)methyl cyclobutyl carbonate] | 5.96 µM | 29 min |
| CCCCCCOC(=O)OC[C@@]1(C#N)O[C@@H](c2ccc3c(N)ncnn23)[C@H](O)[C@@H]1O [Compound 19, ((2R,3S,4R,5S)-5-(4-aminopyrrolo[2,1-f][1,2,4]triazin-7-yl)-2-cyano-3,4-dihydroxytetrahydrofuran-2-yl)methyl hexyl carbonate] | 7.03 µM | 11 min |
| CCCCCOC(=O)OC[C@@]1(C#N)O[C@@H](c2ccc3c(N)ncnn23)[C@H](O)[C@@H]1O [Compound 20, ((2R,3S,4R,5S)-5-(4-aminopyrrolo[2,1-f][1,2,4]triazin-7-yl)-2-cyano-3,4-dihydroxytetrahydrofuran-2-yl)methyl pentyl carbonate] | 7.51 µM | 16 min |
